Earlier results, collected in US8211469B2, “Use of block copolymers based on vinyllactams and vinyl acetate as solubilizers” (priority 2006, dated 2012).

Details: 20° C.

In the case of `Fc1ccc([C@]2(Cn3cncn3)O[C@H]2c2ccccc2Cl)cc1` (racemic) [Epoxyconazole], the Solubility in water is listed as 6.63*10^−4 g/100 ml.
